The kinase profiling compilation of Christmann-Franck et al. (2016)

Assays:
Assay in all cases: radiometric filter-binding kinase assay, Kinase HotSpot
Settings in all cases: compound 0.5 µM; ATP 10 µM
MAP4K2 (human) = MAP4K2 (human) (UniProt Q12851)
AKT1 (human) = AKT1 (human) (UniProt P31749)
PDGFRA (human) = PDGFRA (human) (UniProt P16234)
PRKCZ (human) = PRKCZ (human) (UniProt Q05513)
SGK2 (human) = SGK2 (human) (UniProt Q9HBY8)
DYRK1A (human) = DYRK1A (human) (UniProt Q13627)
MAP4K4 (human) = MAP4K4 (human) (UniProt O95819)
KDR (human) = KDR (human) (UniProt P35968)
CSNK1G2 (human) = CSNK1G2 (human) (UniProt P78368)
ACVR1B (human) = ACVR1B (human) (UniProt P36896)
MAPK3 (human) = MAPK3 (human) (UniProt P27361)
CAMK2G (human) = CAMK2G (human) (UniProt Q13555)
MAP3K8 (human) = MAP3K8 (human) (UniProt P41279)
ACVRL1 (human) = ACVRL1 (human) (UniProt P37023)
ROS1 (human) = ROS1 (human) (UniProt P08922)
BTK (human) = BTK (human) (UniProt Q06187)
PRKD2 (human) = PRKD2 (human) (UniProt Q9BZL6)
WNK2 (human) = WNK2 (human) (UniProt Q9Y3S1)
IKBKE (human) = IKBKE (human) (UniProt Q14164)
EPHA4 (human) = EPHA4 (human) (UniProt P54764)
RAF1 (human) = RAF1 (human) (UniProt P04049)
STK10 (human) = STK10 (human) (UniProt O94804)
MAPK8 (human) = MAPK8 (human) (UniProt P45983)
MUSK (human) = MUSK (human) (UniProt O15146)
SRC (human) = SRC (human) (UniProt P12931)
DYRK2 (human) = DYRK2 (human) (UniProt Q92630)
SGK3 (human) = SGK3 (human) (UniProt Q96BR1)
PAK1 (human) = PAK1 (human) (UniProt Q13153)
PNCK (human) = PNCK (human) (UniProt Q6P2M8)
ULK1 (human) = ULK1 (human) (UniProt O75385)
MAP3K7 TAB1 (human) = MAP3K7 TAB1 (human) (UniProt O43318+Q15750)
ALK (human) = ALK (human) (UniProt Q9UM73)
FGR (human) = FGR (human) (UniProt P09769)
CHEK2 (human) = CHEK2 (human) (UniProt O96017)
MET (human) = MET (human) (UniProt P08581)
EPHA8 (human) = EPHA8 (human) (UniProt P29322)
MAPK11 (human) = MAPK11 (human) (UniProt Q15759)
PLK3 (human) = PLK3 (human) (UniProt Q9H4B4)
CDK1 CCNB1 (human) = CDK1 CCNB1 (human) (UniProt P06493+P14635)
DCLK2 (human) = DCLK2 (human) (UniProt Q8N568)
CDC42BPA (human) = CDC42BPA (human) (UniProt Q5VT25)
TAOK2 (human) = TAOK2 (human) (UniProt Q9UL54)

Sequence of PNCK (human) (Q6P2M8 whole entry, looked up): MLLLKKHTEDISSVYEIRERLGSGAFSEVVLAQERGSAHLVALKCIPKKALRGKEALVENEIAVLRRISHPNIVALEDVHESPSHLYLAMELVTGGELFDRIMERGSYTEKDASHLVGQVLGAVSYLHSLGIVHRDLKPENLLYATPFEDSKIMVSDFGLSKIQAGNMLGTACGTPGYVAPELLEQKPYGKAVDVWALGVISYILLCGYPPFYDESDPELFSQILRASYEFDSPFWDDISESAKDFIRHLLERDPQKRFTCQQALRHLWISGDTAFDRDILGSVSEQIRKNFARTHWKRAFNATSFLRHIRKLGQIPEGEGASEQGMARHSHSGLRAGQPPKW
Sequence of MAP3K7 TAB1 (human) (O43318 whole entry, looked up): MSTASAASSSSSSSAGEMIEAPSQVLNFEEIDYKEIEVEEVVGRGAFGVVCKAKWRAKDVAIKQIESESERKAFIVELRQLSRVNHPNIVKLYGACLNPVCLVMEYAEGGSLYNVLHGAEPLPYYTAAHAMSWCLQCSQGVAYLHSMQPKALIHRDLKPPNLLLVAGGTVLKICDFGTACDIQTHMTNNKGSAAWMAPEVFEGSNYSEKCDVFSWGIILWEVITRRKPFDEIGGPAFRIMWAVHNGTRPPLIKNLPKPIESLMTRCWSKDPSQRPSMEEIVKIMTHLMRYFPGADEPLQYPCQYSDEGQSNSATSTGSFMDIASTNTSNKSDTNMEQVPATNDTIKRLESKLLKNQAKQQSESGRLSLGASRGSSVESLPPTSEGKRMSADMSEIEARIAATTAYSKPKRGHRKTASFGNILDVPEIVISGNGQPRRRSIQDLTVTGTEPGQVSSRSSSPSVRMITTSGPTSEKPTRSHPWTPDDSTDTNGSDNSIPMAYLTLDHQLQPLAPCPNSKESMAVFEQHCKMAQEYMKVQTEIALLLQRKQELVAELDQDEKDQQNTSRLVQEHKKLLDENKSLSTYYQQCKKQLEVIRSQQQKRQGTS
Sequence of MAP3K7 TAB1 (human) (Q15750 whole entry, looked up): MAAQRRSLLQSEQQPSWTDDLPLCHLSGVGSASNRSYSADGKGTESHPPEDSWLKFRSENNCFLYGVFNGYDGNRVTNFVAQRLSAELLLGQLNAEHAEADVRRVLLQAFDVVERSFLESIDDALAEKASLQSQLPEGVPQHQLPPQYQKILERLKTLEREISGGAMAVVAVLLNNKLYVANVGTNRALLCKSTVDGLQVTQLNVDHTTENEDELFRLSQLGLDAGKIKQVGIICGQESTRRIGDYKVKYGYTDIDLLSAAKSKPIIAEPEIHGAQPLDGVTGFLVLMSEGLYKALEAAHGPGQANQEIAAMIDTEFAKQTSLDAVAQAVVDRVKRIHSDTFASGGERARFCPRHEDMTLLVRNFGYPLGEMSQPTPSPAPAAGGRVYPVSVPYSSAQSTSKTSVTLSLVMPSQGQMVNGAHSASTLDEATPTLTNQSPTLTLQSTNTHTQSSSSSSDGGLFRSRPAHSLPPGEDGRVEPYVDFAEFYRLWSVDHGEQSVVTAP
Sequence of ACVR1B (human) (P36896 whole entry, looked up): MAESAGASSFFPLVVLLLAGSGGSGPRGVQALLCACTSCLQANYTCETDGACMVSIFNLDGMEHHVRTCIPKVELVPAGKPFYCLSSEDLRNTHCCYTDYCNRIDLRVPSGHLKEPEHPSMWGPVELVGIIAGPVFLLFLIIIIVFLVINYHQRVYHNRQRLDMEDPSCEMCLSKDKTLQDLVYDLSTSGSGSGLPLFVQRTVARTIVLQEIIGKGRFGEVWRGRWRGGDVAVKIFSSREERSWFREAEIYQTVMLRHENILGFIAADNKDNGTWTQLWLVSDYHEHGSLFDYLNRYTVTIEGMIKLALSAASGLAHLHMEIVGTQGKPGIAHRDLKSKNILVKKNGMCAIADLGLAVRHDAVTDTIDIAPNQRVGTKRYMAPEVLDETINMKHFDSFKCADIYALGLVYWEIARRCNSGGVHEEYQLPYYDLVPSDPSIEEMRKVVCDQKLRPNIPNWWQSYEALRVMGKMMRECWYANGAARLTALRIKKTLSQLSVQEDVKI
Sequence of CAMK2G (human) (Q13555 whole entry, looked up): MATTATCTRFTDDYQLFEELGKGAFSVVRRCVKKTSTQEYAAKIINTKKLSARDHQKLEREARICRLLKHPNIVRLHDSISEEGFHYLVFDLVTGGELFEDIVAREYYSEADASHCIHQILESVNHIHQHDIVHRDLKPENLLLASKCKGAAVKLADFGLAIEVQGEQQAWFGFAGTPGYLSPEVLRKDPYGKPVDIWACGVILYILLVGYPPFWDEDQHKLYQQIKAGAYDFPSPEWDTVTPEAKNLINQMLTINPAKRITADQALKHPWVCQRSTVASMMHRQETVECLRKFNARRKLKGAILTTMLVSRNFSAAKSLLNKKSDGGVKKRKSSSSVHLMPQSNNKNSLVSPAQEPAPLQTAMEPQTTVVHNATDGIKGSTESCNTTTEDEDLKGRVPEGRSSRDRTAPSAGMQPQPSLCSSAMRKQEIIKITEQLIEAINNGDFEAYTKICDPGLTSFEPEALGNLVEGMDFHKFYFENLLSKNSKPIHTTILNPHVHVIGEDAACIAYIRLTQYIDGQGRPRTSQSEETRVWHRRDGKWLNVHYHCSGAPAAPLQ
Sequence of PRKD2 (human) (Q9BZL6 whole entry, looked up): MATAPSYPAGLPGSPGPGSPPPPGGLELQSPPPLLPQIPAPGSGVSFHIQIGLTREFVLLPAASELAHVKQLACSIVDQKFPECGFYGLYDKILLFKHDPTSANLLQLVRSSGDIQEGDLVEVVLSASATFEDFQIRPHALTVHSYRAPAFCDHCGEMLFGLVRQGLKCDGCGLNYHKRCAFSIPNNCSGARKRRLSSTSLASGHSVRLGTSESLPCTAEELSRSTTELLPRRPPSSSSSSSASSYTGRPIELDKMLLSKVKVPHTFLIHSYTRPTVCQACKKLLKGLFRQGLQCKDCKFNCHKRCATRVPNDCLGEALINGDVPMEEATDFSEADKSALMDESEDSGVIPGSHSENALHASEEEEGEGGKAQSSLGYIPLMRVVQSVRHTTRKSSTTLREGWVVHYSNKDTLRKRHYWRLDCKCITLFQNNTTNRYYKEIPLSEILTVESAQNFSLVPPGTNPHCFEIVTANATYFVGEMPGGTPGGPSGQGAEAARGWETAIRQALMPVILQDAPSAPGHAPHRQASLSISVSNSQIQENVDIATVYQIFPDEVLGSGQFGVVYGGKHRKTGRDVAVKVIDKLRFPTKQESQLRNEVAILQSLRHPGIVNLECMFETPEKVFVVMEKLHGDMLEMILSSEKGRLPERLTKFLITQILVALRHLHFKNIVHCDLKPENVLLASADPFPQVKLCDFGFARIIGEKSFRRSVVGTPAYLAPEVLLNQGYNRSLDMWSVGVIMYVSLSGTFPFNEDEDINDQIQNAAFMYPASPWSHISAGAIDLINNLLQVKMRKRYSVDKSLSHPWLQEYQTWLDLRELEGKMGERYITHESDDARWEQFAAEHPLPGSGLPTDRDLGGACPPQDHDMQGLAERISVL
Sequence of MAPK11 (human) (Q15759 whole entry, looked up): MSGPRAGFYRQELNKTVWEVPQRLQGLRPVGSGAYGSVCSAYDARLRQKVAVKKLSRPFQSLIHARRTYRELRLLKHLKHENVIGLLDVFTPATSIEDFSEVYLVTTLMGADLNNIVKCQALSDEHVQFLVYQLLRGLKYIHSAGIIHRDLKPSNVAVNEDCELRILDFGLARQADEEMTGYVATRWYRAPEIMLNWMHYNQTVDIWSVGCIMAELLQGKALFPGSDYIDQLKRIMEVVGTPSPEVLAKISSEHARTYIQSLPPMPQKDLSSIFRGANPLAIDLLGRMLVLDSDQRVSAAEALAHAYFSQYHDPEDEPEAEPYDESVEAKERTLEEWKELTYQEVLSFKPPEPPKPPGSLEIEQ
Sequence of SGK2 (human) (Q9HBY8 whole entry, looked up): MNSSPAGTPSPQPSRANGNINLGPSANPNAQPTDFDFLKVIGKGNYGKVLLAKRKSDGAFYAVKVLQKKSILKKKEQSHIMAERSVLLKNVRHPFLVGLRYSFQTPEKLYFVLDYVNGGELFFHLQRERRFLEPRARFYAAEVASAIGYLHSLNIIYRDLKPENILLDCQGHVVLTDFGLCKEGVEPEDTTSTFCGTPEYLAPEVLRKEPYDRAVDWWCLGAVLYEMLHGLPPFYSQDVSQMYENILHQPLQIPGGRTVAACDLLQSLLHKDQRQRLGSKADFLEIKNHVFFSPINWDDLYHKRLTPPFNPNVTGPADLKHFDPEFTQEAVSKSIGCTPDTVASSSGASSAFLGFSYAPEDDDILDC
Sequence of MUSK (human) (O15146 whole entry, looked up): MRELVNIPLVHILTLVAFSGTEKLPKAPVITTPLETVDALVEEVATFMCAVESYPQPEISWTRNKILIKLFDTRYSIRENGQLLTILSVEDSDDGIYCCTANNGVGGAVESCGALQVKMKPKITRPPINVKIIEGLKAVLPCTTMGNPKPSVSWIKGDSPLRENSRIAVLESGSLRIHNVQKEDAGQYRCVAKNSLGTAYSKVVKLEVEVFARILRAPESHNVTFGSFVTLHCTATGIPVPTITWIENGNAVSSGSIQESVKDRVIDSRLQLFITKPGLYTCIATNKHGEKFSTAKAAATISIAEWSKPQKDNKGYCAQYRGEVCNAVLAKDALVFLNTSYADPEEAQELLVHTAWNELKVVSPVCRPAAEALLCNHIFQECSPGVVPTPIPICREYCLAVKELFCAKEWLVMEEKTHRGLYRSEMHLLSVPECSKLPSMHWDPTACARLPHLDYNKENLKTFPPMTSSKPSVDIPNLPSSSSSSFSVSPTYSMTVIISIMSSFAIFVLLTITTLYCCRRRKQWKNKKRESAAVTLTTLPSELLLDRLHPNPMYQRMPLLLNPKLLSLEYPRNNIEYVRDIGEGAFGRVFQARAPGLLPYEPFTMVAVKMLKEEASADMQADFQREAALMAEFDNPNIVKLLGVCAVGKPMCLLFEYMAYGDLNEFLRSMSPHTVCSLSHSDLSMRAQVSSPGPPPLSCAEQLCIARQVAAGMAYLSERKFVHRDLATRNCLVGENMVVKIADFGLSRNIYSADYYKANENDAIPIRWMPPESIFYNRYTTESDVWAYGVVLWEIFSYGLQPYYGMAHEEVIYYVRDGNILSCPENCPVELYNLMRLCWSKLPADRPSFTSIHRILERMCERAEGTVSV

FC(F)(F)c1ccc(/C=C/c2nc(COc3ccc(CCCCn4ccnn4)cc3)co2)cc1
residual activity (MAP4K2 (human)): 105%
residual activity (AKT1 (human)): 93.2%
residual activity (PDGFRA (human)): 104%
residual activity (PRKCZ (human)): 101%
residual activity (SGK2 (human)): 103%
residual activity (DYRK1A (human)): 105%
residual activity (MAP4K4 (human)): 95.1%
residual activity (KDR (human)): 106%
residual activity (CSNK1G2 (human)): 96.7%
residual activity (ACVR1B (human)): 92.8%
residual activity (MAPK3 (human)): 100%
residual activity (CAMK2G (human)): 99%
residual activity (MAP3K8 (human)): 90.8%
residual activity (ACVRL1 (human)): 103%
residual activity (ROS1 (human)): 93.3%
residual activity (BTK (human)): 98.2%
residual activity (PRKD2 (human)): 96.9%
residual activity (WNK2 (human)): 95.9%
residual activity (IKBKE (human)): 94.8%
residual activity (EPHA4 (human)): 98.8%
residual activity (RAF1 (human)): 97.1%
residual activity (STK10 (human)): 92.6%
residual activity (MAPK8 (human)): 105%
residual activity (MUSK (human)): 104%
residual activity (SRC (human)): 92.5%
residual activity (DYRK2 (human)): 110%
residual activity (SGK3 (human)): 89.2%
residual activity (PAK1 (human)): 104%
residual activity (PNCK (human)): 96.6%
residual activity (ULK1 (human)): 87.2%
residual activity (MAP3K7 TAB1 (human)): 88.7%
residual activity (ALK (human)): 108%
residual activity (FGR (human)): 92.6%
residual activity (CHEK2 (human)): 103%
residual activity (MET (human)): 95.1%
residual activity (EPHA8 (human)): 104%
residual activity (MAPK11 (human)): 102%
residual activity (PLK3 (human)): 107%
residual activity (CDK1 CCNB1 (human)): 93.8%
residual activity (DCLK2 (human)): 102%
residual activity (CDC42BPA (human)): 103%
residual activity (TAOK2 (human)): 105%

O=C1NC(=O)c2c1c1c3ccccc3[nH]c1c1[nH]c3cc(Br)ccc3c21
residual activity (MAP4K2 (human)): 74.1%
residual activity (AKT1 (human)): 101%
residual activity (PDGFRA (human)): 97.6%
residual activity (PRKCZ (human)): 91.8%
residual activity (SGK2 (human)): 68.5%
residual activity (DYRK1A (human)): 84%
residual activity (MAP4K4 (human)): 29.3%
residual activity (KDR (human)): 67.9%
residual activity (CSNK1G2 (human)): 89.5%
residual activity (ACVR1B (human)): 101%
residual activity (MAPK3 (human)): 108%
residual activity (CAMK2G (human)): 99.5%
residual activity (MAP3K8 (human)): 89%
residual activity (ACVRL1 (human)): 109%
residual activity (ROS1 (human)): 74.4%
residual activity (BTK (human)): 74.8%
residual activity (PRKD2 (human)): 45.9%
residual activity (WNK2 (human)): 92.1%
residual activity (IKBKE (human)): 83.4%
residual activity (EPHA4 (human)): 91.3%
residual activity (RAF1 (human)): 97.8%
residual activity (STK10 (human)): 84.6%
residual activity (MAPK8 (human)): 85.2%
residual activity (MUSK (human)): 88.4%
residual activity (SRC (human)): 88.9%
residual activity (DYRK2 (human)): 70.5%
residual activity (SGK3 (human)): 97.2%
residual activity (PAK1 (human)): 87.8%
residual activity (PNCK (human)): 99.4%
residual activity (ULK1 (human)): 99.2%
residual activity (MAP3K7 TAB1 (human)): 91.4%
residual activity (ALK (human)): 94%
residual activity (FGR (human)): 88.8%
residual activity (CHEK2 (human)): 37.5%
residual activity (MET (human)): 76.6%
residual activity (EPHA8 (human)): 102%
residual activity (MAPK11 (human)): 93.6%
residual activity (PLK3 (human)): 93.3%
residual activity (CDK1 CCNB1 (human)): 47.8%
residual activity (DCLK2 (human)): 87.2%
residual activity (CDC42BPA (human)): 97.5%
residual activity (TAOK2 (human)): 94.1%

COc1cc2c(N3CCN(C(=O)Nc4ccc(OC(C)C)cc4)CC3)ncnc2cc1OCCCN1CCCCC1
residual activity (MAP4K2 (human)): 104%
residual activity (AKT1 (human)): 102%
residual activity (PDGFRA (human)): 11.1%
residual activity (PRKCZ (human)): 103%
residual activity (SGK2 (human)): 105%
residual activity (DYRK1A (human)): 104%
residual activity (MAP4K4 (human)): 96.6%
residual activity (KDR (human)): 106%
residual activity (CSNK1G2 (human)): 95.5%
residual activity (ACVR1B (human)): 101%
residual activity (MAPK3 (human)): 106%
residual activity (CAMK2G (human)): 101%
residual activity (MAP3K8 (human)): 93.2%
residual activity (ACVRL1 (human)): 102%
residual activity (ROS1 (human)): 90.1%
residual activity (BTK (human)): 102%
residual activity (PRKD2 (human)): 96.4%
residual activity (WNK2 (human)): 97.4%
residual activity (IKBKE (human)): 96.2%
residual activity (EPHA4 (human)): 96.4%
residual activity (RAF1 (human)): 96.7%
residual activity (STK10 (human)): 95%
residual activity (MAPK8 (human)): 105%
residual activity (MUSK (human)): 99.6%
residual activity (SRC (human)): 102%
residual activity (DYRK2 (human)): 107%
residual activity (SGK3 (human)): 102%
residual activity (PAK1 (human)): 107%
residual activity (PNCK (human)): 97.7%
residual activity (ULK1 (human)): 92.1%
residual activity (MAP3K7 TAB1 (human)): 91.8%
residual activity (ALK (human)): 103%
residual activity (FGR (human)): 94%
residual activity (CHEK2 (human)): 100%
residual activity (MET (human)): 92.5%
residual activity (EPHA8 (human)): 96.6%
residual activity (MAPK11 (human)): 105%
residual activity (PLK3 (human)): 99.3%
residual activity (CDK1 CCNB1 (human)): 97.1%
residual activity (DCLK2 (human)): 103%
residual activity (CDC42BPA (human)): 106%
residual activity (TAOK2 (human)): 102%
